What was measured:
[1] = The drug is tested on Bifidobacterium longum subsp. Infantis strain: CCUG52486 for biotransformation. The drug concentrations were measured before and after a 12-h incubation by liquid-chromatography-coupled mass spectrometry (LC–MS); details: 2 µM
[2] = parabacteroides distasonis, 12 h, 2 µM
Description: The drug is tested on Parabacteroides distasonis strain: ATCC8503 for biotransformation. The drug concentrations were measured before and after a 12-h incubation by liquid-chromatography-coupled mass spectrometry (LC–MS)

[3] = bacteroides fragilis, 12 h, 2 µM
Description: The drug is tested on Bacteroides fragilis strain: NCTC 9343 for biotransformation. The drug concentrations were measured before and after a 12-h incubation by liquid-chromatography-coupled mass spectrometry (LC–MS)

[4] = The drug is tested on Providencia stuartii strain: ATCC25827 for biotransformation. The drug concentrations were measured before and after a 12-h incubation by liquid-chromatography-coupled mass spectrometry (LC–MS); details: 2 µM
[5] = The drug is tested on Blautia luti strain: DSM14534 for biotransformation. The drug concentrations were measured before and after a 12-h incubation by liquid-chromatography-coupled mass spectrometry (LC–MS); type: ADME; design: dose 2 uM, timepoint 0 vs 12 hours; details: 2 µM
[6] = segatella copri, 12 h, 2 µM
Description: The drug is tested on Prevotella copri strain: DSM18205 for biotransformation. The drug concentrations were measured before and after a 12-h incubation by liquid-chromatography-coupled mass spectrometry (LC–MS)

[7] = The drug is tested on Bacteroides dorei strain: DSM17855 for biotransformation. The drug concentrations were measured before and after a 12-h incubation by liquid-chromatography-coupled mass spectrometry (LC–MS); details: phocaeicola dorei, 2 µM
[8] = The drug is tested on Edwardsiella tarda strain: ATCC23685 for biotransformation. The drug concentrations were measured before and after a 12-h incubation by liquid-chromatography-coupled mass spectrometry (LC–MS); details: 2 µM
[9] = The drug is tested on Clostridium sp. strain: fecal isolate for biotransformation. The drug concentrations were measured before and after a 12-h incubation by liquid-chromatography-coupled mass spectrometry (LC–MS); details: 2 µM
[10] = The drug is tested on Alistipes indistinctus strain: DSM22520 for biotransformation. The drug concentrations were measured before and after a 12-h incubation by liquid-chromatography-coupled mass spectrometry (LC–MS); details: 2 µM
[11] = anaerostipes sp., 12 h, 2 µM
Description: The drug is tested on Anaerostipes sp. strain: fecal isolate for biotransformation. The drug concentrations were measured before and after a 12-h incubation by liquid-chromatography-coupled mass spectrometry (LC–MS)

[12] = The drug is tested on Collinsella intestinalis strain: DSM13280 for biotransformation. The drug concentrations were measured before and after a 12-h incubation by liquid-chromatography-coupled mass spectrometry (LC–MS); details: 2 µM
[13] = The drug is tested on Bacteroides pectinophilus strain: ATCC43243 for biotransformation. The drug concentrations were measured before and after a 12-h incubation by liquid-chromatography-coupled mass spectrometry (LC–MS); details: 2 µM
[14] = The drug is tested on Ruminococcus gnavus strain: ATCC29149 for biotransformation. The drug concentrations were measured before and after a 12-h incubation by liquid-chromatography-coupled mass spectrometry (LC–MS); details: mediterraneibacter gnavus, 2 µM
[15] = The drug is tested on Bacteroides sp. WH2 strain: WH2 for biotransformation. The drug concentrations were measured before and after a 12-h incubation by liquid-chromatography-coupled mass spectrometry (LC–MS); details: bacteroides sp. wh2, 12 h, 2 µM
[16] = bacteroides thetaiotaomicron, 12 h, 2 µM
Description: The drug is tested on Bacteroides thetaiotaomicron strain: 3731 for biotransformation. The drug concentrations were measured before and after a 12-h incubation by liquid-chromatography-coupled mass spectrometry (LC–MS)

[17] = The drug is tested on Bacteroides fragilis strain: HMW610 for biotransformation. The drug concentrations were measured before and after a 12-h incubation by liquid-chromatography-coupled mass spectrometry (LC–MS); details: 2 µM
[18] = The drug is tested on Anaerotruncus colihominis strain: DSM17241 for biotransformation. The drug concentrations were measured before and after a 12-h incubation by liquid-chromatography-coupled mass spectrometry (LC–MS); details: 2 µM
[19] = bacteroides intestinalis, 12 h, 2 µM
Description: The drug is tested on Bacteroides intestinalis strain: DSM17393 for biotransformation. The drug concentrations were measured before and after a 12-h incubation by liquid-chromatography-coupled mass spectrometry (LC–MS)

Bacterial Biotransformation [1] | Bacterial Biotransformation [2] | Bacterial Biotransformation [3] | Bacterial Biotransformation [4] | Bacterial Biotransformation [5] | Bacterial Biotransformation [6] | Bacterial Biotransformation [7] | Bacterial Biotransformation [8] | Bacterial Biotransformation [9] | Bacterial Biotransformation [10] | Bacterial Biotransformation [11] | Bacterial Biotransformation [12] | Bacterial Biotransformation [13] | Bacterial Biotransformation [14] | Bacterial Biotransformation [15] | Bacterial Biotransformation [16] | Bacterial Biotransformation [17] | Bacterial Biotransformation [18] | Bacterial Biotransformation [19] | SMILES
Compound NOT metabolized | Compound NOT metabolized | Compound metabolized | Compound NOT metabolized | Compound NOT metabolized | Compound NOT metabolized | Compound metabolized | Compound NOT metabolized | Compound metabolized | Compound NOT metabolized | Compound NOT metabolized | Compound NOT metabolized | – | Compound NOT metabolized | Compound NOT metabolized | Compound NOT metabolized | – | Compound NOT metabolized | Compound NOT metabolized | OCCN(CCO)c1nc(N2CCCCC2)c2nc(N(CCO)CCO)nc(N3CCCCC3)c2n1 [DIPYRIDAMOLE]
Compound NOT metabolized | Compound NOT metabolized | Compound NOT metabolized | Compound NOT metabolized | Compound NOT metabolized | Compound NOT metabolized | Compound NOT metabolized | Compound NOT metabolized | Compound NOT metabolized | Compound NOT metabolized | Compound NOT metabolized | Compound NOT metabolized | Compound NOT metabolized | Compound NOT metabolized | – | Compound NOT metabolized | Compound NOT metabolized | Compound NOT metabolized | Compound NOT metabolized | COC(=O)C1=C(C)NC(C)=C(C(=O)OC(C)C)C1c1cccc2nonc12 (configuration not stated) [ISRADIPINE]
Compound metabolized | Compound NOT metabolized | – | Compound NOT metabolized | – | Compound NOT metabolized | – | Compound NOT metabolized | Compound NOT metabolized | Compound NOT metabolized | Compound NOT metabolized | Compound NOT metabolized | Compound NOT metabolized | Compound NOT metabolized | Compound NOT metabolized | Compound NOT metabolized | Compound metabolized | Compound NOT metabolized | – | CC(C)[C@H]1CC[C@H](C(=O)N[C@H](Cc2ccccc2)C(=O)O)CC1 [NATEGLINIDE]

SMILES | Bacterial Biotransformation [1] | Bacterial Biotransformation [2] | Bacterial Biotransformation [3] | Bacterial Biotransformation [4] | Bacterial Biotransformation [5] | Bacterial Biotransformation [6] | Bacterial Biotransformation [7] | Bacterial Biotransformation [8] | Bacterial Biotransformation [9] | Bacterial Biotransformation [10] | Bacterial Biotransformation [11] | Bacterial Biotransformation [12] | Bacterial Biotransformation [13] | Bacterial Biotransformation [14] | Bacterial Biotransformation [15] | Bacterial Biotransformation [16] | Bacterial Biotransformation [17] | Bacterial Biotransformation [18] | Bacterial Biotransformation [19]
CC1OC(OC2C(O)CC(OC3C(O)CC(OC4CCC5(C)C(CCC6C5CCC5(C)C(C7=CC(=O)OC7)CCC65O)C4)OC3C)OC2C)CC(O)C1O (configuration not stated) | Compound NOT metabolized | Compound metabolized | Compound NOT metabolized | Compound NOT metabolized | Compound NOT metabolized | Compound metabolized | Compound metabolized | Compound NOT metabolized | Compound metabolized | Compound NOT metabolized | Compound NOT metabolized | Compound NOT metabolized | Compound NOT metabolized | Compound NOT metabolized | Compound NOT metabolized | Compound NOT metabolized | Compound metabolized | – | –
